Results from patent US20190183961A1, “GLUTAMINE FOR PRESERVING, IMPROVING OR RESTORING KIDNEY FUNCTION” (Fresenius Kabi Deutschland GmbH, priority 2016, published 2019).
Like-named read-outs stand apart in the source and are kept apart here. Peptide text beside a SMILES is read from it.

Tested on: 5/6 kidney nephrectomised rat model
Format: in vivo
Conditions: for incidence of chronic progressive nephropathy (animals affected/animals examined) / effect on incidence/occurrence of chronic progressive nephropathy (in words): 9 days; for incidence of chronic progressive nephropathy (animals affected/animals examined): 5/6 nephrectomised rats; for effect on incidence/occurrence of chronic progressive nephropathy (in words): continuous i.v. infusion, all doses, versus nephrectomised control; for changes in blood levels of biomarkers for kidney and liver injury / treatment-related clinical signs / tolerability of intravenous infusion: rat, in vivo
Method: The effect of L-glutamine (administered in form of L-alanyl-L-glutamine; Dipeptiven™) following daily continuous intravenous infusion was examined in a 5/6 kidney nephrectomised rat model.
L-alanyl-L-glutamine was administered for 9 consecutive days. The effects attributable to L-glutamine (provided in form of alanyl-glutamine; Dipeptiven™) were determined by comparison to an L-alanine infusion.
To prevent protein overdose, the protein content of the animal food was adapted according to the L-alanyl-L-glutamine or L-alanine dose administered intravenously.
The study was conducted according to the following design:
Group 1 and 2 animals (control) received the vehicle (0.9% NaCl).
Groups 5 and 6 received Dipeptiven™ without any dilution, i.e. L-alanyl-L-glutamine in a concentration of 200 mg/ml.
Group 3 and 4 animals received diluted Dipeptiven™, i.e. L-alanyl-L-glutamine in a concentration of 13.33 and 80 mg/ml respectively.
Group 7 and 8 animals received L-alanine in a concentration of 32 and 80 mg/ml respectively.
All animals in groups 1 and 3 to 8 underwent a 5/6 nephrectomy. All animals in group 2 were “sham operated”, meaning the abdomen was opened and closed in the surgery, but the kidneys were not excised and remained in the body.
During the acclimatisation period, a polyurethane catheter was implanted into the posterior vena cava via the left femoral vein. Following implantation, the animals were maintained on continuous infusion with physiological saline prior to the start of treatment.
Morbidity/mortality checks were performed at least twice daily. Clinical observations were performed daily. A full clinical examination was performed daily. Individual body weights were recorded three times a week. Food consumption was measured three times a week for each cage of animals, including one measurement during the acclimatisation period. Clinical laboratory determinations were performed on selected animals on days −1 and on days 1 to 10. Animals were sampled for amino acid determination on days 1, 4, 7 and 10. Animals were fasted before blood sampling performed on day 10.
All animals were killed at the end of the treatment period (day 10) and necropsied. Organ/tissue samples were fixed and preserved at necropsy for all animals. Selected organs/tissues from all animals were examined histopathologically. In addition, selected organs/tissues from all animals were used for amino acid determination.

[1] = 3.0 g/kg/day continuous i.v. infusion, 9% protein in diet
[2] = groups 4 and 8: 3.0 g/kg/day, 9% protein in diet, control 60%

Structure (SMILES) | incidence of chronic progressive nephropathy (animals affected/animals examined) (1.2 g/kg/day continuous i.v. infusion, 10.8% protein in diet) | incidence of chronic progressive nephropathy (animals affected/animals examined) [1] | effect on incidence/occurrence of chronic progressive nephropathy (in words) | occurrence of chronic progressive nephropathy, percent of animals [2] [%] | changes in blood levels of biomarkers for kidney and liver injury | treatment-related clinical signs | tolerability of intravenous infusion | incidence of chronic progressive nephropathy (animals affected/animals examined) (0.5 g/kg/day continuous i.v. infusion, 12% protein in diet) | incidence of chronic progressive nephropathy (animals affected/animals examined) (7.5 g/kg/day continuous i.v. infusion, 4.5% protein in diet) | incidence of chronic progressive nephropathy (animals affected/animals examined) (7.5 g/kg/day continuous i.v. infusion, 12% protein in diet (amino acid overload)) | incidence of chronic progressive nephropathy (animals affected/animals examined) (7.5 g/kg/day continuous i.v. infusion, 12% protein in diet (amino acid overload), listed as L-alanyl-L-glutamine) | occurrence of chronic progressive nephropathy, percent of animals (group 3: 0.5 g/kg/day, 12% protein in diet, control 60%) [%] | occurrence of chronic progressive nephropathy, percent of animals (group 5: 7.5 g/kg/day, 4.5% protein in diet, control 60%) [%] | occurrence of chronic progressive nephropathy, percent of animals (group 6: 7.5 g/kg/day, 12% protein in diet (amino acid overload)) [%]
C[C@H](N)C(=O)O [Ala, L-alanine] | 4/5 | 3/5 | did not | 60 | No treatment-related | No treatment-related clinical signs | overall well tolerated |  |  |  |  |  |  | 
C[C@H](N)C(=O)N[C@@H](CCC(N)=O)C(=O)O [Ala-Gln, L-alanyl-L-glutamine] (H-Ala-Gln-OH) |  | 0/5 | decreased incidence of chronic progressive nephropathy | 0 | No treatment-related | No treatment-related clinical signs | overall well tolerated | 2/5 | 0/5 | 1/5 | 2/5 | 40 | 0 | 
NC(=O)CC[C@H](N)C(=O)O [L-glutamine] |  |  | reduces the occurrence of chronic progressive nephropathy in a dose-dependent manner |  |  |  |  |  |  |  |  |  |  | 20
